According to paper PMC10100467, “The Function of Two Radical‐SAM Enzymes, HcgA and HcgG, in the Biosynthesis of the [Fe]‐Hydrogenase Cofactor” (Angewandte Chemie (International Ed. in English), 2022):

Molecular target: T1, HcgA (Methanococcus maripaludis, UniProt Q6M0Z2)
T1 construct: His-tagged, produced in Escherichia coli with helper plasmid pRKISC; [4Fe-4S] radical SAM enzyme, CX5CX2C motif
T1 sequence (Q6M0Z2 1-341): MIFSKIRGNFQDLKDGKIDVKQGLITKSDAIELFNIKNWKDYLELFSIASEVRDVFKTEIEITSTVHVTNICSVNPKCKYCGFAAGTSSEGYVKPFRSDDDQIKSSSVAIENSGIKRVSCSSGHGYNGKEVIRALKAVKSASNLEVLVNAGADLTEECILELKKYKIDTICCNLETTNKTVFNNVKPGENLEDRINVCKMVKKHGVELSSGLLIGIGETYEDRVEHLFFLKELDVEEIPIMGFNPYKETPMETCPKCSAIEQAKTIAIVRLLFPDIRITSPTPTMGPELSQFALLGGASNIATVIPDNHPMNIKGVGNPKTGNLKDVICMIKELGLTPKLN
Assay: radical SAM activity, HPLC-MS of product […]
Type: biochemical
Settings: 1 mM SAH, without added SAM; 3 kDa filtrate of the delta-hcgA cell extract as substrate

Nc1ncnc2c1ncn2[C@@H]1O[C@H](CSCC[C@H](N)C(=O)O)[C@@H](O)[C@H]1O [S-adenosyl homocysteine]
relative activity (%): The HcgA activity was inhibited by a radical SAM enzyme inhibitor, S‐adenosyl homocysteine
